Reference: patent publication US9920032B2, “Heterocyclic compounds useful as pim kinase inhibitors” (Incyte Corporation, priority 2015, dated 2018)

Legend:
Type in all cases: biochemical
Pim-1 = Pim-1 (Homo sapiens (Human), UniProt P11309); experiment: Pim-1 kinase assay; details: 1 mM ATP; read-out: PIM1 IC50
Method: (§1) Pim-1 and Pim-3 kinase assays—20 μL reactions were run in white 384 well polystyrene plates dotted with 0.8 μL compound/DMSO in the assay buffer (50 mM Tris, pH 7.5, 0.01% Tween-20, 5 mM mgCl2, 0.01% BSA, 5 mM DTT), containing 0.05 μM Biotin-labeled BAD peptide substrate (AnaSpec 62269), 1 mM ATP, and 2.5 pM (Pim-1, Invitrogen PV3503) or 1.25 pM (Pim-3, Millipore 14-738) enzyme for 1 h at 25° C. Reactions were stopped by addition of 10 μL STOP Buffer (150 mM Tris, pH=7.5, 150 mM NaCl, 75 mM EDTA, 0.01% Tween-20, 0.3% BSA,) supplemented with Phospho-Bad (Ser112) Antibody (Cell Signaling 9291) diluted 666-fold, and Streptavidin donor beads (PerkinElmer 6760002) along with Protein-A acceptor beads (PerkinElmer 6760137) at […]. Supplementation of the STOP buffer with beads and stopping the reactions were done under reduced light. Prior to the stopping reactions STOP buffer with beads was preincubated for 1 h in the dark at room temperature. After stopping the reactions, plates were incubated for 1 h in the dark at room temperature before reading on a PHERAstar FS plate reader (BMG Labtech) under reduced light.

Pim-3 = Pim-3 (Homo sapiens (Human), UniProt Q86V86); experiment: Pim-3 kinase assay; details: 1 mM ATP; read-out: PIM3 IC50
Method: as §1

Pim-2 = Pim-2 (Homo sapiens (Human), UniProt Q9P1W9); experiment: Pim-2 kinase assay; details: 1 mM ATP; read-out: PIM2 IC50
Pim-2, sequence (Q9P1W9 whole entry): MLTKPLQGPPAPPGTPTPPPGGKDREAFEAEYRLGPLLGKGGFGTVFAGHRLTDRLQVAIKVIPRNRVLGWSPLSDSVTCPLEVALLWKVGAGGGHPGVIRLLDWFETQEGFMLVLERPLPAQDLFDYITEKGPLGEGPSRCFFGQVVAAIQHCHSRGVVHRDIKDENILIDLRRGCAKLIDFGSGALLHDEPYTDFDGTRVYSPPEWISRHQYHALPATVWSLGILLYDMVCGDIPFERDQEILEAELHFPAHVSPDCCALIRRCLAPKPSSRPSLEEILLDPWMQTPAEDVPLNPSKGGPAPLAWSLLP
Method: Pim-2 kinase assay—20 μL reactions were run in white 384 well polystyrene plates dotted with 0.8 μL compound/DMSO in the assay buffer (50 mM Tris, pH 7.5, 0.01% Tween-20, 5 mM mgCl2, 0.01% BSA, 5 mM DTT), containing 0.05 μM Fluorescein-labeled CREBtide peptide substrate (Invitrogen PV3508), 1 mM ATP, and 1 nM enzyme (Invitrogen PV3649) for 2 h at 25° C. Reactions were stopped by addition of 10 μL TR-FRET Dilution Buffer (Invitrogen PV3574) with 30 mM EDTA and 1.5 nM LanthaScreen Tb-CREB pSer133 antibody (Invitrogen PV3566). After 30 min. incubation at room temperature, plates were read on a PHERAstar FS plate reader (BMG Labtech).

Pim-1, sequence (P11309 whole entry): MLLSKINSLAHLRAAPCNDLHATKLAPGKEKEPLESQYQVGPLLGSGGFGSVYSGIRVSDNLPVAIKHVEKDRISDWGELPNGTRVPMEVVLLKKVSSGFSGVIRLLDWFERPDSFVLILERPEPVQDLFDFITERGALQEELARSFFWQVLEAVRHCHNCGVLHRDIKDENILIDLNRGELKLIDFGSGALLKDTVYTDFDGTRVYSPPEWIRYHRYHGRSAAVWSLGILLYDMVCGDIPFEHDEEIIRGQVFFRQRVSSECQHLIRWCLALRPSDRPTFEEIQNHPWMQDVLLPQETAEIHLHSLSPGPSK

Row | SMILES | IC50 (Pim-1) | IC50 (Pim-3) | IC50 (Pim-2)
1 | COC[C@H]1CCCN1c1cnc2c(C(=O)Nc3cnccc3[C@@H]3C[C@H](C)C[C@H](N)C3)ccc(F)c2c1 [Example 47, N-(4-((1R,3S,5S)-3-Amino-5-methylcyclohexyl)pyridin-3-yl)-5-fluoro-3-OR)-2-(methoxymethyl)pyrrolidin-1-yl)quinoline-8-carboxamide] | ≤ 0.01 µM | ≤ 0.01 µM | ≤ 0.1 µM
2 | COC[C@@H]1CCCN1c1cnc2c(C(=O)Nc3cnccc3[C@@H]3C[C@H](C)C[C@H](N)C3)ccc(F)c2c1 [Example 48, N-(4-((1R,3S,5S)-3-Amino-5-methylcyclohexyl)pyridin-3-yl)-5-fluoro-3-((S)-2-(methoxymethyl)pyrrolidin-1-yl)quinoline-8-carboxamide] | ≤ 0.01 µM | ≤ 0.01 µM | 0.1 to 1 µM
3 | CO[C@@H]1CCN(c2cnc3c(C(=O)Nc4cnccc4[C@@H]4C[C@H](C)C[C@H](N)C4)ccc(F)c3c2)C1 [Example 49, N-(4-((1R,3S,5S)-3-amino-5-methylcyclohexyl)pyridin-3-yl)-5-fluoro-3-((R)-3-methoxypyrrolidin-1-yl)quinoline-8-carboxamide] | ≤ 0.01 µM | ≤ 0.01 µM | 0.1 to 1 µM
4 | CO[C@H]1CCN(c2cnc3c(C(=O)Nc4cnccc4[C@@H]4C[C@H](C)C[C@H](N)C4)ccc(F)c3c2)C1 [Example 50, N-(4-((1R,3S,5S)-3-Amino-5-methylcyclohexyl)pyridin-3-yl)-5-fluoro-3-((S)-3-methoxypyrrolidin-1-yl)quinoline-8-carboxamide] | ≤ 0.01 µM | ≤ 0.01 µM | ≤ 0.1 µM
5 | COCCN(C)c1cnc2c(C(=O)Nc3cnccc3[C@@H]3C[C@H](C)C[C@H](N)C3)ccc(F)c2c1 [Example 51, N-(4-((1R,3S,5S)-3-Amino-5-methylcyclohexyl)pyridin-3-yl)-5-fluoro-3-((2-methoxyethyl)(methyl)amino)quinoline-8-carboxamide] | ≤ 0.01 µM | ≤ 0.01 µM | 0.1 to 1 µM
6 | C[C@@H]1C[C@H](N)C[C@H](c2ccncc2NC(=O)c2ccc(F)c3cc(N[C@@H](C)C4CC4)cnc23)C1 [Example 52, N-(4-((1R,3S,5S)-3-Amino-5-methylcyclohexyl)pyridin-3-yl)-3-((S)-1-cyclopropylethylamino)-5-fluoroquinoline-8-carboxamide] | ≤ 0.01 µM | 0.01 to 0.05 µM | 1 to 10 µM
7 | CC(C)[C@H](C)Nc1cnc2c(C(=O)Nc3cnccc3[C@@H]3C[C@H](C)C[C@H](N)C3)ccc(F)c2c1 [Example 53, N-(4-((1R,3S,5S)-3-Amino-5-methylcyclohexyl)pyridin-3-yl)-5-fluoro-3-((S)-3-methylbutan-2-ylamino)quinoline-8-carboxamide] | ≤ 0.01 µM | ≤ 0.01 µM | 0.1 to 1 µM
8 | CC(C)[C@@H](C)Nc1cnc2c(C(=O)Nc3cnccc3[C@@H]3C[C@H](C)C[C@H](N)C3)ccc(F)c2c1 [Example 54, N-(4-((1R,3S,5S)-3-amino-5-methylcyclohexyl)pyridin-3-yl)-5-fluoro-3-((R)-3-methylbutan-2-ylamino)quinoline-8-carboxamide] | ≤ 0.01 µM | ≤ 0.01 µM | 0.1 to 1 µM
9 | CCCN(C)c1cnc2c(C(=O)Nc3cnccc3[C@@H]3C[C@H](C)C[C@H](N)C3)ccc(F)c2c1 [Example 55, N-(4-((1R,3S,5S)-3-Amino-5-methylcyclohexyl)pyridin-3-yl)-5-fluoro-3-(methyl(propyl)amino)quinoline-8-carboxamide] | ≤ 0.01 µM | ≤ 0.01 µM | ≤ 0.1 µM
10 | CC(C)N(C)c1cnc2c(C(=O)Nc3cnccc3[C@@H]3C[C@H](C)C[C@H](N)C3)ccc(F)c2c1 [Example 56, N-(4-((1R,3S,5S)-3-Amino-5-methylcyclohexyl)pyridin-3-yl)-5-fluoro-3-(isopropyl(methyl)amino)quinoline-8-carboxamide] | ≤ 0.01 µM | ≤ 0.01 µM | ≤ 0.1 µM
11 | CCC1CCCCN1c1cnc2c(C(=O)Nc3cnccc3[C@@H]3C[C@H](C)C[C@H](N)C3)ccc(F)c2c1 (stereo partly drawn) [Example 57, N-(4-((1R,3S,5S)-3-Amino-5-methylcyclohexyl)pyridin-3-yl)-3-(2-ethylpiperidin-1-yl)-5-fluoroquinoline-8-carboxamide] | ≤ 0.01 µM | 0.01 to 0.05 µM | ≤ 0.1 µM
12 | C[C@@H]1C[C@H](N)C[C@H](c2ccncc2NC(=O)c2ccc(F)c3cc(N4CCCCC4C(F)F)cnc23)C1 (stereo partly drawn) [Example 58, N-(4-((1R,3S,5S)-3-Amino-5-methylcyclohexyl)pyridin-3-yl)-3-(2-(difluoromethyl)piperidin-1-yl)-5-fluoroquinoline-8-carboxamide] | ≤ 0.01 µM | ≤ 0.01 µM | ≤ 0.1 µM
13 | C[C@@H]1C[C@H](N)C[C@H](c2ccncc2NC(=O)c2ccc(F)c3cc(-c4cc(F)cc5cccnc45)cnc23)C1 [Example 59, N-(4-((1R,3S,5S)-3-Amino-5-methylcyclohexyl)pyridin-3-yl)-5,6′-difluoro-3,8′-biquinoline-8-carboxamide] | ≤ 0.01 µM | 0.01 to 0.05 µM | 1 to 10 µM
14 | C[C@@H]1C[C@H](N)C[C@H](c2ccncc2NC(=O)c2ccc(F)c3cc(-c4ccc(F)c5cccnc45)cnc23)C1 [Example 60, N-(4-((1R,3S,5S)-3-Amino-5-methylcyclohexyl)pyridin-3-yl)-5,5′-difluoro-3,8′-biquinoline-8-carboxamide] | ≤ 0.01 µM | 0.01 to 0.05 µM | 1 to 10 µM
15 | C[C@@H]1C[C@H](N)C[C@H](c2ccncc2NC(=O)c2ccc(F)c3cc(-c4ccc(C(F)(F)F)nc4)cnc23)C1 [Example 61, N-(4-((1R,3S,5S)-3-Amino-5-methylcyclohexyl)pyridin-3-yl)-5-fluoro-3-(6-(trifluoromethyl)pyridin-3-yl)quinoline-8-carboxamide] | ≤ 0.01 µM | 0.01 to 0.05 µM | 1 to 10 µM
16 | CCn1cc(-c2cnc3c(C(=O)Nc4cnccc4[C@@H]4C[C@H](C)C[C@H](N)C4)ccc(F)c3c2)cn1 [Example 62, N-(4-((1R,3S,5S)-3-Amino-5-methylcyclohexyl)pyridin-3-yl)-3-(1-ethyl-1H-pyrazol-4-yl)-5-fluoroquinoline-8-carboxamide] | ≤ 0.01 µM | ≤ 0.01 µM | 0.1 to 1 µM
17 | Cc1nn(C)cc1-c1cnc2c(C(=O)Nc3cnccc3[C@@H]3C[C@H](C)C[C@H](N)C3)ccc(F)c2c1 [Example 63, N-(4-((1R,3S,5S)-3-Amino-5-methylcyclohexyl)pyridin-3-yl)-3-(1,3-dimethyl-1H-pyrazol-4-yl)-5-fluoroquinoline-8-carboxamide] | ≤ 0.01 µM | ≤ 0.01 µM | 0.1 to 1 µM
18 | C[C@@H]1C[C@H](N)C[C@H](c2ccncc2NC(=O)c2ccc(F)c3cc(-c4cnn(C)c4)cnc23)C1 [Example 64, N-(4-((1R,3S,5S)-3-Amino-5-methylcyclohexyl)pyridin-3-yl)-5-fluoro-3-(1-methyl-1H-pyrazol-4-yl)quinoline-8-carboxamide] | ≤ 0.01 µM | ≤ 0.01 µM | 0.1 to 1 µM
19 | Cc1n[nH]cc1-c1cnc2c(C(=O)Nc3cnccc3[C@@H]3C[C@H](C)C[C@H](N)C3)ccc(F)c2c1 [Example 65, N-(4-((1R,3S,5S)-3-amino-5-methylcyclohexyl)pyridin-3-yl)-5-fluoro-3-(3-methyl-1H-pyrazol-4-yl)quinoline-8-carboxamide] | ≤ 0.01 µM | ≤ 0.01 µM | 0.1 to 1 µM
20 | C[C@@H]1C[C@H](N)C[C@H](c2ccncc2NC(=O)c2ccc(F)c3cc(-c4cn[nH]c4)cnc23)C1 [Example 66, N-(4-((1R,3S,5S)-3-amino-5-methylcyclohexyl)pyridin-3-yl)-5-fluoro-3-(1H-pyrazol-4-yl)quinoline-8-carboxamide] | ≤ 0.01 µM | ≤ 0.01 µM | 0.1 to 1 µM
21 | C[C@@H]1C[C@H](N)C[C@H](c2ccncc2NC(=O)c2cccc3cc(N4CCOC[C@H]4C)cnc23)C1 [Example 67, N-(4-((1R,3S,5S)-3-Amino-5-methylcyclohexyl)pyridin-3-yl)-3-((R)-3-methylmorpholino)quinoline-8-carboxamide] | ≤ 0.01 µM | ≤ 0.01 µM | ≤ 0.1 µM
22 | C[C@@H]1C[C@H](N)C[C@H](c2ccncc2NC(=O)c2cccc3cc(N4CCC[C@H]4C)cnc23)C1 [Example 68, N-(4-((1R,3S,5S)-3-Amino-5-methylcyclohexyl)pyridin-3-yl)-3-((R)-2-methylpyrrolidin-1-yl)quinoline-8-carboxamide] | ≤ 0.01 µM | ≤ 0.01 µM | ≤ 0.1 µM
